Key:
cock's combs = test: PDT of cock's comb, model of cutaneous vascular lesion (capillary hemangioma); assay type: in vivo, cocks
From the text: Animals Used: cocks (bodyweight: 2.5 to 3.5 kg) of 22 to 24 weeks old
Photosensitizer: talaporfin sodium
Laser Used Panalas6405, diode laser, wavelength: 664.5 nm±2 nm, output power: 75-500 mW
(§1) As the model of PDT to cutaneous vascular lesion (capillary hemangioma), cock's combs were used. Cock's comb is recognized as a model of cutaneous vascular lesion (capillary hemangioma) in this field. To each cock of 22 to 24 weeks old (bodyweight: about 2.5 kg), talaporfin sodium solution (concentration: 5 mg/ml) was intravenously injected from the brachial vein in an amount of 2.5 mg/kg bodyweight of the cock, in terms of the amount of talaporfin sodium. Immediately after the intravenous injection, the cock's comb was irradiated with a diode laser (wavelength: 664.5 nm±2 nm, irradiation power density: 127 mW/cm^2, energy density: 25 J/cm^2 or 50 J/cm^2). As an experimental group, (i) PDT-performed group was made, and as control groups, (ii) a group to which only the intravenous injection of talaporfin sodium was performed, and (iii) a group to which only laser irradiation was performed, were made. The mean plasma talaporfin sodium level at the end of the treatment was also measured.
Morphological changes during 7 days after the treatment were visually observed, and the cocks were subjected to autopsy 7 days after the treatment. Tissue preparations were stained by hematoxylin eosin staining by a conventional method, and as required, PTAH staining (fibrin staining) and AZAN staining (collagen fiber staining) were added.

[1] = Plasma talaporfin sodium level in cocks at the end of treatment; assay type: in vivo; conditions: 2.5 mg/kg intravenous, at end of laser treatment
Experimental: as §1

skin of the upper arm = test: Safety tests to human: PDT on skin of the upper arm of normal individuals; assay type: in vivo
Experimental: (§2) To 2 normal individuals (Subject A: normal person, Subject B: normal person), talaporfin sodium was intravenously administered at a dose of 0.2 mg/kg. After the administration, the skin of the upper arm was irradiated with a diode laser (irradiation conditions: irradiation energy of 25 J/cm^2 and 50 J/cm^2 at an […] of 127 mW/cm^2, diameter of irradiated spots: 1 cm in both spots). Subject A was followed up for 2 weeks and Subject B was followed up for 2 months.

[2] = Plasma drug level in human after PDT; assay type: in vivo; conditions: from actually measured plasma level of Example 2
Experimental: as §2
Further, it was confirmed from the change with time of the plasma drug level measured after the PDT that the plasma level at which the photosensitive reaction no longer occurs is attained at 24 to 48 hours from the intravenous injection. This period of time is almost coincident with the period of time deduced from the model of pharmacokinetics, so that the correctness of the above-described estimated required shading time was confirmed.

[3] = PDT-performed group, autopsy 7 days after treatment
[4] = control group, only drug administration, no laser

Tetrasodium salt of mono-L-aspartyl chlorin e6 [talaporfin sodium]
histological findings: blood vessels in the dermis (hematoxylin eosin) (cock's combs; [3]): disappearance of vasodilated blood vessels in the dermis was observed | histological findings: hyperplasia of collagen fibers in the stroma (cock's combs; [3]): not observed | histological findings: stratum corneum epidermidis and stratum basale epidermidis in the irradiated site (cock's combs; [3]): the continuity of the stratum corneum epidermidis was maintained, and the stratum basale epidermidis was also conserved | histological findings: vascular endothelial cells in the dermis (highly magnified image) (cock's combs; [3]): disappearance of vascular endothelial cells was observed | visual findings: decoloration reaction (cock's combs; PDT-performed group: 2.5 mg/kg i.v. + diode laser 664.5 nm, 127 mW/cm^2, 25 or 50 J/cm^2, observed 7 days): decoloration reaction was observed at the site coincident with the irradiated site | histological findings (cock's combs; [4]): No changes were observed | visual findings: decoloration reaction (cock's combs; [4]): Decoloration reaction was not observed | mean plasma talaporfin sodium level at the end of treatment [1]: 2.3 µg/mL | edema in the irradiated sites and vicinities (skin of the upper arm; 0.2 mg/kg i.v. + diode laser 25 and 50 J/cm^2, from immediately after the PDT): slight edema was observed | erythema in the irradiated sites (skin of the upper arm; 0.2 mg/kg i.v. + diode laser 25 and 50 J/cm^2, up to 2 days after the treatment): slight erythema was observed | erythema in the irradiated sites (skin of the upper arm; 0.2 mg/kg i.v. + diode laser, one week after the treatment): the erythema had been disappeared | side effects at two months from the treatment (skin of the upper arm; Subject B, 0.2 mg/kg i.v. + diode laser): no side effects were observed | amount of talaporfin sodium needed in human for attaining the plasma level found in cocks (2.3 μg/mL) [2]: 0.2 mg/kg

From US20090041672A1, “Drug for Treating or Diagnosing Vascular Lesion in the Skin or the Subcutaneous Soft Tissue Caused by Light Irradiation” (priority 2005, published 2009)
